Assay results: ChEMBL document CHEMBL1201862, “PubChem BioAssay data set” (2004)
Where a name gives a salt, the structure may show the parent alone.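 Cells were grown in 96-well plates and exposed to each compound for 48 hours at five concentrations; endpoints were interpolated linearly between bracketing concentrations, or set to the highest concentration if not reached. Abbreviation: GI50, concentration required for 50% inhibition of growth.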 Activity calls are given as the source filed them. Rule as the data show it: active = GI50 up to about 1.1 µM and inactive = higher.

Legend:
Assay in all cases: DTP human tumour cell line panel, 48 h
[1] = tested on: RPMI-8226
[2] = tested on: A498
[3] = tested on: SF-268
[4] = tested on: MDA-MB-231
[5] = tested on: UACC-257
[6] = tested on: UACC-62
[7] = tested on: SN12C
[8] = tested on: HCT-116
[9] = tested on: OVCAR-8
[10] = tested on: UO-31
[11] = tested on: HCC 2998
[12] = tested on: KM12
[13] = tested on: NCI-H460
[14] = tested on: HL-60
[15] = tested on: Malme-3M
[16] = tested on: LOX IMVI
[17] = tested on: PC-3
[18] = tested on: A549
[19] = tested on: Hs-578T
[20] = tested on: SW-620

| SMILES | GI50 [1] | GI50 [2] | GI50 [3] | GI50 [4] | GI50 [5] | GI50 [6] | GI50 [7] | GI50 [8] | GI50 [9] | GI50 [10] | GI50 [11] | GI50 [12] | GI50 [13] | GI50 [14] | GI50 [15] | GI50 [16] | GI50 [17] | GI50 [18] | GI50 [19] | GI50 [20] |
| --- | --- | --- | --- | --- | --- | --- | --- | --- | --- | --- | --- | --- | --- | --- | --- | --- | --- | --- | --- | --- |
| CCOP(=O)(OCC)OC1c2[nH]cc(C(=O)OCc3ccccc3)c2-c2cc(C(=O)OC)[nH]c2C1OC (stereo not given) | 5.62 µM (inactive) | 10.6 µM (inactive) | 12.5 µM (inactive) | 2.91 µM (inactive) | 6.79 µM (inactive) | 7.05 µM (inactive) | 16.4 µM (inactive) | 6.4 µM (inactive) | 12.8 µM (inactive) | 4.57 µM (inactive) | 6.85 µM (inactive) | 7.96 µM (inactive) | 4.55 µM (inactive) | 6.15 µM (inactive) | 9.06 µM (inactive) | 4.56 µM (inactive) | 4.94 µM (inactive) | 5.85 µM (inactive) | 16.8 µM (inactive) | 14.5 µM (inactive) |
| O=C(O)CSSCC(=O)O | > 100 µM (inactive) | > 100 µM (inactive) | > 100 µM (inactive) | > 100 µM (inactive) | > 100 µM (inactive) | > 100 µM (inactive) | > 100 µM (inactive) | > 100 µM (inactive) | > 100 µM (inactive) | > 100 µM (inactive) | > 100 µM (inactive) | > 100 µM (inactive) | > 100 µM (inactive) | > 100 µM (inactive) | > 100 µM (inactive) | > 100 µM (inactive) | > 100 µM (inactive) | > 100 µM (inactive) | > 100 µM (inactive) | > 100 µM (inactive) |
| CNC(=O)NCCN1CC2CCC(CC2)C1 | > 10 µM (inactive) | > 10 µM (inactive) | > 10 µM (inactive) | > 10 µM (inactive) | > 10 µM (inactive) | > 10 µM (inactive) | > 10 µM (inactive) | > 10 µM (inactive) | > 10 µM (inactive) | > 10 µM (inactive) | > 10 µM (inactive) | > 10 µM (inactive) | > 10 µM (inactive) | > 10 µM (inactive) | > 10 µM (inactive) | > 10 µM (inactive) | > 10 µM (inactive) | > 10 µM (inactive) | > 10 µM (inactive) | > 10 µM (inactive) |
| CN1CCC(CN2c3ccccc3Sc3ccccc32)C1 (stereo not given) [METHDILAZINE HYDROCHLORIDE] | 15.1 µM (inactive) | 13.1 µM (inactive) | 15.3 µM (inactive) | 14 µM (inactive) | 11.8 µM (inactive) | 12.8 µM (inactive) | 15.3 µM (inactive) | 13.9 µM (inactive) | 16.5 µM (inactive) | 14.8 µM (inactive) | 10.1 µM (inactive) | 17.9 µM (inactive) | 13.9 µM (inactive) | 14.7 µM (inactive) | 16.5 µM (inactive) | 15 µM (inactive) | 12.4 µM (inactive) | 16.2 µM (inactive) | 15.4 µM (inactive) | 19.2 µM (inactive) |
| O=C(O)c1nn(-c2ccc(Cl)cc2)c2c1C(=O)c1ccccc1C2=O | > 100 µM (inactive) | > 100 µM (inactive) | > 100 µM (inactive) | 41.3 µM (inactive) | > 100 µM (inactive) | > 100 µM (inactive) | > 100 µM (inactive) | > 100 µM (inactive) | > 100 µM (inactive) | > 100 µM (inactive) | 43.1 µM (inactive) | > 100 µM (inactive) | 62.1 µM (inactive) | > 100 µM (inactive) | 5.42 µM (inactive) | > 100 µM (inactive) | > 100 µM (inactive) | > 100 µM (inactive) | > 100 µM (inactive) | > 100 µM (inactive) |
| CC(Oc1ccccc1Cl)C(=O)NN1C(=O)CC(=O)NC1=S (stereo not given) | 98.9 µM (inactive) | > 100 µM (inactive) | > 100 µM (inactive) | > 100 µM (inactive) | > 100 µM (inactive) | 46.1 µM (inactive) | > 100 µM (inactive) | > 100 µM (inactive) | > 100 µM (inactive) | 92.5 µM (inactive) | > 100 µM (inactive) | 83.8 µM (inactive) | > 100 µM (inactive) | 9.23 µM (inactive) | > 100 µM (inactive) | 61.9 µM (inactive) | > 100 µM (inactive) | > 100 µM (inactive) | > 100 µM (inactive) | > 100 µM (inactive) |
| CCN(CC)CCCNc1ccc2nnn3c4ccc(O)cc4c(=O)c1c23 | 3.28 µM (inactive) | 8.97 µM (inactive) | 5.3 µM (inactive) | 7.74 µM (inactive) | 17.9 µM (inactive) | 16.6 µM (inactive) | 5.57 µM (inactive) | 1.15 µM (inactive) | 2.97 µM (inactive) | 0.968 µM (active) | 9.06 µM (inactive) | 6.61 µM (inactive) | 0.653 µM (active) | 5.55 µM (inactive) | 13.1 µM (inactive) | 2.9 µM (inactive) | 6.5 µM (inactive) | 1.58 µM (inactive) | 14.4 µM (inactive) | 2.69 µM (inactive) |
